Experiment [1] concerns Diabrotica balteata - larvae in the soil. Put plainly: Critical concentration test/soil insects, Diabrotica balteata larvae in the soil (maize). It is filed as in vivo. Here is the method: Here, the concentration of the active compound in the preparation is almost irrelevant; only the amount by weight of active compound per volume unit of soil, which is stated in ppm (mg/l), matters. The soil is filled into 0.51 pots and these are allowed to stand at 20° C.
Immediately after preparation, 5 maize corns are placed into each pot. After 3 days, the test insects are placed into the treated soil. After a further 7 days, the efficacy is determined. The efficacy is calculated from the number of maize plants which have emerged.

Experiment [2] concerns Botrytis cinerea. Briefly: Botrytis test (bean)/protective. Conditions: 2 days after inoculation.
Description: If the actual fungicidal activity exceeds the calculated value, then the activity of the combination is superadditive, i.e. a synergistic effect exists. In this case, the efficacy which was actually observed must be greater than the value for the expected efficacy (E) calculated from the formula set out above.
After the spray coating has dried on, 2 small pieces of agar colonized by Botrytis cinerea are placed onto each leaf. The inoculated plants are placed in a dark chamber at approximately 20° C. and 100% relative atmospheric humidity.
2 days after the inoculation, the size of the disease spots on the leaves is evaluated.
Experiment [3] deals with Fusarium culmorum. Put plainly: Fusarium culmorum test (wheat)/seed treatment. Type of experiment: in vivo. Conditions: 75 g/ha, dry seed dressing, approximately 3 weeks after sowing. Here is the method:
Fusarium Culmorum Test (Wheat)/Seed Treatment
The active compounds are applied as a dry dressing. They are prepared by extending the active compound in question with ground minerals to give a finely pulverulent mixture which ensures even distribution on the surface of the seeds.
For the dressing, the infected seeds are shaken with the dressing in a closed glass bottle for 3 minutes.
2×100 seeds of the wheat are sown at a depth of 1 cm into standard soil, and the wheat is cultivated in a greenhouse at a temperature of approximately 18° C. and at a relative atmospheric humidity of approximately 95% in seed containers receiving 15 hours of light per day.
The evaluation of the plants for symptoms is carried out approximately 3 weeks after sowding.

Experiment [4] concerns Spodoptera frugiperda. Put plainly: Critical concentration test/root systemic action, Spodoptera frugiperda (maize). It is filed as in vivo. Here is the method: The preparation of active compound is mixed intimately with soil. Here, the concentration of the active compound in the preparation is virtually immaterial; only the amount by weight of active compound per volume unit of soil, which is stated in ppm (mg/l), matters. The soil is filled into 250 ml pots and these are allowed to stand at 20° C.
Immediately after preparation, 3 maize corns are placed into each pot. 14 days after the preparation, the test insects are placed into an insect bracket and attached to the plant. 4 days after the infection, the efficacy of the active compound is determined in % by counting the dead and live test insects. The efficacy is 100% if all test insects have been killed; it is 0% if the same number of test insects is alive as in the untreated control.

Experiment [5] concerns Puccinia recondita. Briefly: Puccinia test (wheat)/protective. Type of experiment: in vivo. Conditions: 18.75 g/ha, 10 days after inoculation. Here is the method: After the spray coating has dried on, the plants are sprayed with a conidia suspension of Puccinia recondita.
The plants are then placed in a greenhouse at a temperature of approximately 20° C. and a relative atmospheric humidity of 80% to promote the development of rust pustules.
(§1) Evaluation is carried out 10 days after the inoculation.

Experiment [6] concerns Phaedon cochleariae larvae. Briefly: Critical concentration test/root-systemic action, Phaedon cochleariae (cabbage). Type of experiment: in vivo. Here is the method:
(§2) The active compound preparation is mixed intimately with soil. Here, the concentration of the active compound in the preparation is almost irrelevant; only the amount by weight of active compound or active compound mixture per volume unit of soil, which is stated in ppm (mg/l), matters.
Soil is filled into 250 ml pots and these are planted with cabbage (Brassica oleracea). The active compound or the active compound combination can thus be taken up by the plant roots from the soil and transported into the leaves.

In experiment [7] the test system is Sphaerotheca fuliginea. Briefly: Sphaerotheca test (cucumber)/protective. It is filed as in vivo. Conditions: 10 days after inoculation. As to the method:
After the spray coating has dried on, the plants are inoculated with an aqueous spore suspension of Sphaerotheca fuliginea.
as §1

Experiment [8] has as its system green rice leaf hopper (Nephotettix cincticeps). Put plainly: Nephotettix test (rice seedling dip). It is filed as in vivo.
Experiment [9] has as its system caterpillars of the diamondback moth (Plutella xylostella). Briefly: Plutella test (cabbage leaf dip). It is filed as in vivo.
The test system of experiment [10] is larvae of the mustard beetle (Phaedon cochleariae). Put plainly: Phaedon larvae test (cabbage leaf dip).
The test system of experiment [11] is Erysiphe graminis f.sp. hordei. Put plainly: Erysiphe test (barley)/protective. Type of experiment: in vivo. Conditions: 62.5 g/ha, 7 days after inoculation; single value given.
Experiment [12] deals with Spodoptera frugiperda. Briefly: Critical concentration test/soil insects, Spodoptera frugiperda (maize). It is filed as in vivo.
Description: as §2

The test system of experiment [13] is Pyrenophora teres. Briefly: Pyrenophora teres test (barley)/protective. It is filed as in vivo. Conditions: 7 days after inoculation, single value given. Here is the method:
After the spray coating has dried on, the plants are sprayed with a conidia suspension of Pyrenophora teres.
The plants are then placed in a greenhouse at a temperature of approximately 20° C. and a relative atmospheric humidity of approximately 80%.
Evaluation is carried out 7 days after the inoculation.

Experiment [14] deals with Heliothis virescens caterpillars. Briefly: Heliothis virescens test (soya bean shoot dip). Type of experiment: in vivo.
For experiment [15], the system named is Phytophthora infestans. It is filed as in vivo. Conditions: 3 days after inoculation.
Setting [16] is: Spodoptera frugiperda, soil, 120 h, read-out: Kill in %.
The mark [17] stands for this setting: Spodoptera frugiperda, 120 h, 20.00 ppm in soil, read-out: Kill in %.

Like-named read-outs stand apart in the source and are kept apart here.

This is an account of results in patent US6680325B2, “Agents for combating plant pests” (Bayer Aktiengesellschaft, priority 1998, dated 2004).

In experiment [1] (20.00 ppm in soil), `Cc1noc(C)c1S(=O)(=O)n1c(Cl)nc2cc3c(cc21)OC(F)(F)O3` [compound according to (50)] registered a Kill in % of 20.00 ppm = 70%.

In the case of `N#Cc1c[nH]cc1-c1cccc2c1OC(F)(F)O2` [fludioxonil], in experiment [2] (10 g/ha), the “Efficacy in % found” value stood at 40%. This compound showed an Efficacy in % in [3] of 0%.

For `CNC(=N[N+](=O)[O-])NCc1cnc(Cl)s1` [formula (I)], the Kill in % is 0.15 ppm = 50% in experiment [4] (0.15 ppm in soil); 50% in experiment [6] (0.30 ppm in soil); 80% in experiment [6] (0.60 ppm in soil); 100% in [6] (1.25 ppm in soil); 0% in experiment [8] (concentration 0.00000128 %); 0% in experiment [9] (concentration 0.0008 %). Besides, the Kill in % in [1] (0.15 ppm in soil) was found to be 0.15 ppm = 0%; in experiment [1] (0.30 ppm in soil) it was 0.30 ppm = 50%; in experiment [10] (concentration 0.000032 %) it was 0%; in [10] (concentration 0.00016 %), 20%; in [14] (concentration 0.00016 %), 50%. Also, the Efficacy in % in [5] and in [3] was 0% in each case. For the same compound, the “Efficacy in % found” value in [7] (10 g/ha) amounted to 0%; in experiment [7] (500 g/ha) it was 0%; in experiment [2] (10 g/ha), 0%; in experiment [2] (100 g/ha), 4%. Besides, the “Efficacy in % calculated/found” value is on record as 0% in experiment [11], 20% in experiment [13] (18.75 g/ha) and 0% in [13] (62.5 g/ha). Moreover, in experiment [12] (setting [16]), the pest or weed control at 0.06 ppm is 98%. Moreover, the pest or weed control at 0.3 ppm in [12] (setting [16]) amounted to 50%. Further, the pest or weed control at 1.25 ppm in [12] (setting [16]) is 100%.

Regarding `[O-][n+]1nc(-n2ccnc2)nc2ccc(Cl)cc21` [triazoxides], the “Efficacy in % calculated/found” value in experiment [13] (62.5 g/ha) is listed as 40%.

Turning to `CC(C)(C)C(O)(CCc1ccc(Cl)cc1)Cn1cncn1` (centres unmarked) [tebuconazole], the Kill in % in [6] (20.00 ppm in soil) and in [9] (concentration 0.02 %) was 0% in each case. Further, the “Efficacy in % found” value in experiment [2] (100 g/ha) is on record as 80%. Besides, the pest or weed control at 20 ppm in [12] (setting [17]) was determined as 0%.

For `CC(C)(C)C(O)C(Oc1ccc(Cl)cc1)n1cncn1` (centres unmarked) [triadimenol], the Efficacy in % in experiment [5] is given as 13%; in experiment [3], 13.5%. Further, the Kill in % in experiment [6] (20.00 ppm in soil) was determined as 0%. Also, in experiment [15] (500 g/ha), the “Efficacy in % found” value is 0%. In addition, in experiment [12] (setting [17]), the pest or weed control at 20 ppm is 0%.

As for `N#Cc1c[nH]cc1-c1cccc(Cl)c1Cl` [fenpiclonil], the Kill in % in experiment [6] (20.00 ppm in soil) stood at 0%. The “Efficacy in % found” value in experiment [7] (500 g/ha) was determined as 50%. In addition, in [12] (setting [17]), the pest or weed control at 20 ppm stood at 0%.

For the compound propiconazole, the Kill in % in experiment [6] (20.00 ppm in soil) and in experiment [12] (20.00 ppm in soil) was 0% each time. Also, in experiment [15] (500 g/ha), the “Efficacy in % found” value was found to be 5%.

`OC(Cc1ccccc1Cl)(Cn1nc[nH]c1=S)C1(Cl)CC1` (centres unmarked) [compound of group (49)] showed a Kill in % in [4] (5.00 ppm in soil) of 5.00 ppm = 0%.

Consider `CO/N=C(\C1=NOCCO1)c1ccccc1Oc1ncnc(Oc2ccccc2Cl)c1F` [compound according to (48)], for which the Kill in % in experiment [1] (20.00 ppm in soil) is reported as 20.00 ppm = 0%.

For the compound `CC(C1CC1)C(O)(Cn1cncn1)c1ccc(Cl)cc1` (centres unmarked) [cyproconazole], the “Efficacy in % found” value in experiment [7] (10 g/ha) was determined as 70%. Besides, in experiment [12] (setting [17]), the pest or weed control at 20 ppm is 0%.

In [10] (concentration 0.1 %), `CO/N=C(/C(=O)OC)c1ccccc1COc1ccccc1C` [kresoxim-methyl] showed a Kill in % of 0%. Besides, the “Efficacy in % calculated/found” value in [11] is listed as 0%.

In the case of `COCC(=O)N(c1c(C)cccc1C)C(C)C(=O)OC` (centres unmarked) [metalaxyl], the Kill in % in experiment [6] (20.00 ppm in soil), in experiment [8] (concentration 0.1 %) and in [9] (concentration 0.1 %) was 0% each time. The “Efficacy in % found” value in [15] (50 g/ha) came out at 42%. In experiment [12] (setting [17]), the pest or weed control at 20 ppm amounted to 0%.

As for `CO/C=C(/C(=O)OC)c1ccccc1Oc1cc(Oc2ccccc2C#N)ncn1` [azoxystrobin], the Kill in % in experiment [6] (20.00 ppm in soil) and in experiment [14] (concentration 0.0008 %) was 0% throughout. Moreover, the pest or weed control at 20 ppm in experiment [12] (setting [17]) stood at 0%. The “Efficacy in % calculated/found” value in [13] (18.75 g/ha) is 0%.

For `CC(C)(C)C(O)C(Oc1ccc(-c2ccccc2)cc1)n1cncn1` (centres unmarked) [bitertanol], the Kill in % in [6] (20.00 ppm in soil) is 0%. In addition, the pest or weed control at 20 ppm in [12] (setting [17]) turned out to be 0%.
